The record followed here is ChEMBL document CHEMBL1134457, “Medicinal chemistry of neuronal voltage-gated sodium channel blockers” (J Med Chem, 2001).

For series [1], the system named is Rattus norvegicus. Briefly: In vivo anticonvulsant activity to prevent seizures from maximum electroshock (MES) […]. It is filed as functional.
Series [2] can be described thus: Inhibition of [3H]BTX binding to cardiac voltage-gated sodium channel. The arrangement: species or system Rattus norvegicus.
Series [3] can be described thus: Inhibition of veratridine-induced guanidine flux in cardiac voltage-gated sodium channel (veratridine block vs. Na release). In kind it is functional, tissue-based, Rattus norvegicus, Heart.
For series [4], the species on record is Rattus norvegicus. Briefly: Neuroprotective activity was determined in the rat middle cerebral artery occlusion (MCAO) model of focal stroke. Particulars: read-out: MED. It is filed as functional.
Series [5] is filed under the species Rattus norvegicus. Description: Minimum effective dose was determined in the rat middle cerebral artery occlusion (MCAO) model of focal stroke […]. In kind it is functional. The conditions noted are these: read-out: MED.
Series [6] is described as follows: In vivo toxic dose in rotarod assay. It is filed as ADME, organism-based. Particulars: rat.
Series [7] concerns the target GABA-A receptor; anion channel. Description: Anticonvulsant activity against gamma-aminobutyric acid receptor. In kind it is functional.
The nature of series [8]: Effective dose was determined after intraperitoneal administration in the MES model. It is filed as functional. The conditions noted are these: Rattus norvegicus, ip.
A short description of series [9]: Inhibition of [3H]-BTX binding to cardiac voltage-gated sodium channel. It is filed as functional, Rattus norvegicus.
Series [10] can be described thus: Potency against voltage-gated calcium channel [45[Ca2+]]. It is filed as functional.
Series [11] is filed under the species Rattus norvegicus. Description: Neuroprotective activity was determined in the rat middle cerebral artery occlusion (MCAO) model of focal stroke using rotarod assay. In kind it is functional. Particulars: read-out: MED.
The subject of series [12] is Rattus norvegicus. Briefly: In vivo anticonvulsant activity to prevent seizures from maximum electroshock (MES) […] after (i.v.) administration. It is filed as functional. The conditions noted are these: iv.
The next series has as its system Gerbillinae. Description: Neuroprotective activity was determined in the rat middle cerebral artery occlusion (MCAO) model of focal stroke in gerbil. It is filed as functional. Particulars: read-out: MED.
Series [13] is filed under the species Rattus norvegicus. Description: Minimum effective dose (MED) was determined in the rat middle cerebral artery occlusion (MCAO) model of focal stroke […]. It is filed as functional. Particulars: read-out: MED.

pIC50: −log10 of the molar value.

In the case of `NC(=O)NNCc1ccc(Oc2ccc(F)cc2)cc1`, the 50% effect level in the series on Rattus norvegicus [1] (ED50) was put at a dose of 4.2 mg/kg.

For the compound `COc1ccc(CN2CCN(C(c3ccc(F)cc3)c3ccc(F)cc3)CC2)c(OC)c1OC` [LOMERIZINE], the pIC50 in series [2] was 7.59.

As for `COc1ccc(CCN(C)CCCC(C#N)(c2ccc(OC)c(OC)c2)C(C)C)cc1OC` (stereo unspecified), the pIC50 in series [3] and in [2] was 5.60 each time.

With `Cc1cccc(C)c1N1C(=O)c2ccc(N)cc2C1=O`, the pIC50 in series [2] is 6.96.

In series [3], `CN1CCN(c2ncc(-c3cc(Cl)cc(Cl)c3Cl)c(N)n2)CC1` [SIPATRIGINE] had a pIC50 of 5.28. Also, the results for the minimal effective dose in the series filed under Rattus norvegicus [4] and in the series filed under Rattus norvegicus [5] were 30 mg/kg and 60 mg/kg, respectively.

In turn, `Nc1cnc(-c2cc(Cl)cc(Cl)c2Cl)c(N)n1` [ELPETRIGINE] yielded a TD50 in [6] of 18.8 mg/kg. This compound registered an ED50 with Rattus norvegicus [1] of 1.13 mg/kg.

`CC1(C)O[C@@H]2[C@@H](CO[C@@]3(COS(N)(=O)=O)OC(C)(C)O[C@@H]23)O1` [TOPIRAMATE]: the 50% effect level in the series on Rattus norvegicus [1] (ED50) was put at a dose of 39 mg/kg.

Turning to `Nc1ncc(-c2cc(Cl)cc(Cl)c2Cl)c(N)n1`, the pIC50 in series [3] is 5.80. The minimal effective dose in the series filed under Rattus norvegicus [4] turned out to be 20 mg/kg.

In series [6], `COC(=O)[C@@H]1C(=O)C=C(Nc2ccc(Cl)cc2)C[C@H]1C` had a TD50 of 255 mg/kg. The compound further came in with an ED50 with Rattus norvegicus [1] of 26.2 mg/kg.

With `Cc1cccc(C)c1OCC(C)N` (stereo unspecified) [MEXILETINE], it took a dose of 2 mg/kg to reach the 50% effect level in the series with Rattus norvegicus [1] (ED50).

As for `CCCN(c1ccncc1)n1ccc2ccccc21` [BESIPIRDINE], the figures for the pIC50 in series [3] and in series [2] were 4.52 and 5.26, respectively.

In turn, `Cc1cccc(C)c1NC(=O)c1ccc(N)cc1` [AMELTOLIDE] gave an ED50 in the series with Rattus norvegicus [1] of 13 mg/kg.

As for `Nc1nnc(-c2cccc(Cl)c2Cl)c(N)n1` [LAMOTRIGINE], the pIC50 is 4.68 in series [3] and 3.94 in series [2]. For the same compound, in [6], the TD50 was determined as 84 mg/kg. Also, the minimal effective dose in the series listed under Rattus norvegicus [4] was 20 mg/kg. In the series on Rattus norvegicus [1], this compound registered an ED50 of 2.2 mg/kg.

`NC(=O)C12NC(Cc3ccccc31)c1ccccc12` (stereo unspecified) yielded an ED50 in the series on Rattus norvegicus [1] of 8.9 mg/kg.

For `CCOc1ccccc1OCCN1CCC2(CC)c3cccc(O)c3CC1C2(C)C` (stereo unspecified), in the series filed under Rattus norvegicus [4], the minimal effective dose was 2 mg/kg.

In the series with Rattus norvegicus [1], `C[C@H](C(N)=O)N1CCC23CCCC[C@@H]2[C@@H]1Cc1ccc(OCc2cccc(F)c2)cc13` (single isomer, unassigned) showed an ED50 of 18.1 mg/kg.

As for `Fc1ccc(C(c2ccc(F)cc2)N2CCN(C/C=C/c3ccccc3)CC2)cc1` [FLUNARIZINE], the values for the pIC50 in series [3] and in series [2] were 6.92 and 6.46, respectively.

In the case of `CCC1(Cc2ccccc2)CCCNC1=O` (stereo unspecified), the pIC50 in [7] was 3.31.

On to `Cc1cccc(C)c1NC(=O)/C=C1/SCC(=O)N1C`, for which the pIC50 in [2] is 4.60. For the same compound, the ED50 in the series on Rattus norvegicus [1] amounted to 2.8 mg/kg.

Take `Clc1ccc(-c2c[nH]nc2N2CCOCC2)cc1`: the 50% effect level in [8] (ED50) was put at a dose of 47 mg/kg.

Take `CN(C)CCOc1ccccc1-c1nc(-c2ccccc2)no1`: the ED50 in the series on Rattus norvegicus [1] was 2.8 mg/kg.

Consider `NC(=O)N1c2ccccc2C=Cc2ccccc21` [CARBAMAZEPINE], for which the pIC50 was 4.52 in series [3] and 3.88 in [2]. Moreover, in series [6], the TD50 turned out to be 27.4 mg/kg. Moreover, the minimal effective dose in the series listed under Rattus norvegicus [4] was determined as 2 mg/kg. For the same compound, the 50% effect level with Rattus norvegicus [1] (ED50) was put at a dose of 3.4 mg/kg.

In the series on Rattus norvegicus [1], `Nc1nccc2c1nnn2Cc1c(F)cccc1F` displayed an ED50 of 6.3 mg/kg.

Turning to `Cc1nc(OCCCCCN2CCCCC2)cc(-c2ccc(F)cc2)n1` [ENECADIN], the pIC50 is 5.11 in series [3] and 6.00 in [9]. Further, the minimal effective dose in the series filed under Rattus norvegicus [4] is 0.5 mg/kg.

As to `CCC(C)c1ccc(N2CCCN(c3ccc(C(C)CC)cc3)C2=N)cc1` (stereo unspecified), the pIC50 was 7.22 in series [3] and 6.41 in series [10].

As to `NS(=O)(=O)Cc1noc2ccccc12` [ZONISAMIDE], in the series listed under Rattus norvegicus [4], the minimal effective dose is 100 mg/kg.

In series [6], `COC(=O)c1[nH]cc(-c2ccc(Br)cc2)c1N1CCOCC1` had a TD50 above 500 mg/kg. Further, in the series on Rattus norvegicus [1], the 50% effective dose (ED50) amounted to 2.5 mg/kg.

Regarding `Cc1cccc(C)c1NC(=O)Nc1ccncc1`, the pIC50 in series [2] is 4.54.

In the case of `COc1ccccc1OCCNCC(O)COc1cccc2[nH]c3ccccc3c12` (stereo unspecified) [CARVEDILOL], the pIC50 in series [3] was 6.51; in series [2], 5.77.

As for `Cc1ccc(-c2nc(C)c(CN3CCN(C(c4ccc(F)cc4)c4ccc(F)cc4)CC3)[nH]2)cc1`, the pIC50 is 6.52 in series [3] and 6.92 in [2].

In series [3], `Nc1nc2ccc(OC(F)(F)F)cc2s1` [RILUZOLE] gave a pIC50 of 5.40. In addition, the minimal effective dose was 4 mg/kg in the series filed under Rattus norvegicus [4] and 30 mg/kg in the series listed under Rattus norvegicus [11].

Regarding `OC(COc1ccccc1)CN1CCC(c2ccc(Oc3ccccc3)cc2)CC1` (stereo unspecified), in series [3], the pIC50 is 6.66. In addition, in the series listed under Rattus norvegicus [4], the minimal effective dose turned out to be 3 mg/kg.

For `CCN(CC)CC(=O)Nc1c(C)cccc1C` [LIDOCAINE], the pIC50 in [3] is 4.01; in series [2], 3.95. In series [6], this compound gave a TD50 of 41 mg/kg. Besides, it took a dose of 87 mg/kg to reach the 50% effect level in the series with Rattus norvegicus [1] (ED50).

For the compound `NC1CCc2c(-c3ccccc3)[nH]c3cccc1c23` (stereo unspecified), the pIC50 in series [3] is 5.39; in series [2] it was 5.96.

Turning to `N=c1sc2ccccc2n1CCN1CCC(c2ccc(F)cc2)CC1`, in the series listed under Rattus norvegicus [4], the minimal effective dose amounted to 16 mg/kg. Besides, in the series with Rattus norvegicus [1], the 50% effect level (ED50) was put at a dose of 3.9 mg/kg.

`CC(NCc1ccc(OCc2cccc(F)c2)cc1)C(N)=O` (stereo unspecified) came in with an ED50 with Rattus norvegicus [1] of 4.1 mg/kg.

`O=C1NC(=O)C(c2ccccc2)(c2ccccc2)N1` [PHENYTOIN]: the results for the negative-log IC50 (pIC50) in [3] and in [2] were 4.68 and 4.40, respectively. Moreover, the ED50 with Rattus norvegicus [12] amounted to 10 mg/kg. Further, the minimal effective dose in the series filed under Rattus norvegicus [4] was 200 mg/kg.

Compound `CN(c1nc2ccccc2s1)C1CCN(C[C@H](O)COc2ccc(F)c(F)c2)CC1` [LUBELUZOLE] gave a pIC50 in series [2] of 6.55. Also, the minimal effective dose in the series filed under Rattus norvegicus [4] amounted to 0.3 mg/kg.

Take `Nc1ncnnc1-c1cc(Cl)cc(Cl)c1Cl`: in [6], the TD50 was determined as 40 mg/kg. Moreover, the ED50 with Rattus norvegicus [1] was found to be 1.7 mg/kg.

Compound `COc1ccc(/N=C(\N)Nc2ccc3c4c(cccc24)CC3)c2ccccc12` gave a pIC50 in [3] of 5.79. The minimal effective dose in the series with Gerbillinae is 30 mg/kg.

Consider `CC(Cc1ccccc1)(NC(=O)CN)c1ccccc1` (stereo unspecified) [REMACEMIDE], for which the minimal effective dose in the series filed under Rattus norvegicus [13] was found to be 100 mg/kg; in the series listed under Rattus norvegicus [4] it was 10 mg/kg.

On to `CC1CCCC(C)N1CCCNC(=O)C(c1ccccc1)c1ccccc1` (stereo unspecified), for which the values for the negative-log IC50 (pIC50) in series [3] and in series [2] were 5.30 and 7.34, respectively.
